# Laboratory results published in publication PMC7129073 (Clinical Microbiology and Infection, 2015).
# Like-named read-outs stand apart in the source and are kept apart here.
# Key:
# C. albicans = assay: Antifungal susceptibility; type: cell-based, Candida albicans
# [1] = tested on: Pseudomonas putida clinical isolates; assay: Agar dilution MIC; type: cell-based
# [2] = tested on: Streptococcus agalactiae strains P0162 and P0425; assay: Microdilution; type: cell-based
# C. parapsilosis = assay: Antifungal susceptibility; type: cell-based, Candida parapsilosis
# [3] = tested on: glycopeptide intermediate Staphylococcus species (GISS); assay: VITEK II, screening plate and E test, blood isolates; type: cell-based, coagulase-negative Staphylococci
# [4] = tested on: viridans group streptococci (VGS); assay: MIC; type: cell-based
# [5] = tested on: viridans group streptococci (VgS) and Streptococcus bovis; assay: Broth microdilution and disk diffusion; type: cell-based; settings: nine species
# nontyphoidal Salmonella = assay: Agar dilution, isolates from chickens 1998–2004; type: cell-based, Salmonella spp.
# [6] = tested on: Pseudomonas aeruginosa (PSA); assay: Vitek 2 susceptibility, urine isolates of children; type: cell-based; settings: both departments
# N.gonorrhoeae = assay: microbe, parasite or virus in culture; type: cell-based; settings: Neisseria gonorrhoeae
# Shigella spp. = assay: Disk diffusion, stool isolates Tehran; type: cell-based; settings: 96 isolates
# Salmonella enterica = assay: VITEK, NCCLS microdilution and disc diffusion of quinolones; type: cell-based
# S. pneumoniae [7] = type: cell-based, Streptococcus pneumoniae
# Acinetobacter = assay: Disk diffusion; type: cell-based; settings: 37 isolates selected as resistant to beta-lactams
# Nocardia spp. = assay: E-test on Mueller Hinton agar, 81 clinical isolates; type: cell-based; settings: for MIC50 / MIC90: Nocardia; for MIC range: read after 48 and 72 h
# E. coli = assay: Sensitivity of CAP pathogens with/without antibiotic pretreatment; type: cell-based, Escherichia coli
# S. pneumoniae [8] = assay: PROTEKT Italy, NCCLS microdilution; type: cell-based, Streptococcus pneumoniae
# P. aeruginosa = assay: Sensitivity of CAP pathogens with/without antibiotic pretreatment; type: cell-based, Pseudomonas aeruginosa; settings: Abs. 3
# S. pneumoniae [9] = assay: E-test MIC, children with URTI, Brazil; type: cell-based, Streptococcus pneumoniae
# S. pneumoniae [10] = assay: Broth microdilution; type: cell-based, Streptococcus pneumoniae; settings: 275 isolates
# [11] = tested on: Other non-fermenting bacteria; assay: Sensitivity of CAP pathogens with/without antibiotic pretreatment; type: cell-based
# Enterococcus sp = assay: as above; type: cell-based
# [12] = tested on: Total pathogens in community acquired pneumonia; assay: as above; type: cell-based
# S. aureus = assay: as above; type: cell-based, Staphylococcus aureus
# Kl. pneumoniae = assay: as above; type: cell-based, Klebsiella pneumoniae
# Other Haemophilus sp. = assay: as above; type: cell-based
# [13] = tested on: pathogens in community acquired pneumonia of different severity; assay: Sensitivity of CAP pathogens by Fine severity group; type: cell-based
# S. pyogenes = assay: Sensitivity of CAP pathogens with/without antibiotic pretreatment; type: cell-based, Streptococcus pyogenes; settings: Abs. 4
# Other Enterobacteriacae = assay: as above; type: cell-based, Enterobacteriaceae
# Staph. coaq (−) = assay: as above; type: cell-based, coagulase-negative Staphylococcus
# H. influenzae = assay: as above; type: cell-based, Haemophilus influenzae
# S. -pneumoniae = assay: as above; type: cell-based, Streptococcus pneumoniae
# [14] = Phase 3 trial, complicated intra-abdominal infections; type: in vivo, human
# MSSA = assay: Agar dilution MIC; type: cell-based, Staphylococcus aureus; settings: for MIC50 / MIC90: Staphylococcus aureus, MSSA; for MIC range: n = 200
# MRSA = assay: Agar dilution MIC; type: cell-based, Staphylococcus aureus; settings: for MIC50 / MIC90: Staphylococcus aureus, MRSA; for MIC range: n = 50
# S. pneumoniae (SPN) = assay: NCCLS broth microdilution, fluoroquinolones 1999–2004; type: cell-based, Streptococcus pneumoniae; settings: Streptococcus pneumoniae, read-out: MIC90 during the six years, 1999–2004
# [15] = tested on: methicillin susceptible Staphylococcus aureus; assay: NCCLS agar dilution MIC; type: cell-based
# [16] = tested on: methicillin resistant Staphylococcus aureus; assay: NCCLS agar dilution MIC; type: cell-based; settings: n = 53
# E. faecium = assay: E-test susceptibility; type: cell-based, Enterococcus faecium
# E. faecalis = assay: E-test susceptibility; type: cell-based, Enterococcus faecalis
# [17] = Linezolid in paediatric oncohaematological patients, retrospective; type: in vivo, human
# enterococci = assay: Disk diffusion and E-test, faecal isolates of cancer patients; type: cell-based, Enterococcus; settings: 38 strains
compound,measurement,setting,value
Nc1nc(=O)[nH]cc1F [flucitozine],susceptibility of all tested strains,C. albicans,susceptible
C[C@@H]1CN(c2c(F)c(N)c3c(=O)c(C(=O)O)cn(C4CC4)c3c2F)C[C@H](C)N1 [sparfloxacin],MIC,[1],> 128 µg/mL
same,MIC,"[2]; strain P0162 (ParC Ser79Phe, GyrA Glu85Ala)",4 µg/mL
same,MIC,"[2]; strain P0425 (ParC Ser79Phe, GyrA Glu85Lys)",> 32 µg/mL
C[C@@H]1[C@H](O)[C@@H](C)/C=C/C=C/C=C/C=C/C=C/C=C/C=C/[C@H](O[C@@H]2O[C@H](C)[C@@H](O)[C@H](N)[C@@H]2O)C[C@@H]2O[C@](O)(C[C@@H](O)C[C@@H](O)[C@H](O)CC[C@@H](O)C[C@@H](O)CC(=O)O[C@H]1C)C[C@H](O)[C@H]2C(=O)O [amphotericin B],susceptibility of all tested strains,C. albicans,susceptible
same,resistant,C. parapsilosis,10%
quinupristin/dalfopristin,sensitivity of all GISS strains,[3],all GISS strains demonstrated sensitivity
same,MIC50,"[4]; 107 strains, 1990–2003",0.5 µg/mL
same,MIC90,"[4]; 107 strains, 1990–2003",2 µg/mL
same,"% S, range between species",[5],99.0 – 100.0%
"NCC[C@H](O)C(=O)N[C@@H]1C[C@H](N)[C@@H](O[C@H]2O[C@H](CN)[C@@H](O)[C@H](O)[C@H]2O)[C@H](O)[C@H]1O[C@H]1O[C@H](CO)[C@@H](O)[C@H](N)[C@H]1O [AM, amikacin]",resistance,"nontyphoidal Salmonella; Belgian collection (caecal samples; Belgium, France, Netherlands)",46%
same,resistance,nontyphoidal Salmonella; Germany (carcass meat),16%
same,MIC50,[4],0.12 µg/mL
same,MIC90,[4],1 µg/mL
same,Susceptible isolates,[6],74-100%
Clc1ccc(COC(Cn2ccnc2)c2ccc(Cl)cc2Cl)c(Cl)c1 (centres unmarked) [miconazole],susceptibility of all tested strains,C. albicans,susceptible
same,resistant and intermediate susceptibility,C. parapsilosis,50%
CC1COc2c(N3CCN(C)CC3)c(F)cc3c(=O)c(C(=O)O)cn1c23 (centres unmarked) [ofloxacin],MIC,N.gonorrhoeae; strain 76mu6,8 µg/mL
same,MIC,N.gonorrhoeae; strain 76mu10,8 µg/mL
same,MIC,N.gonorrhoeae; strain 92mu6,4 µg/mL
same,MIC,N.gonorrhoeae; strain 92mu13,4 µg/mL
same,resistance rate,[3]; 73 GISS strains,"84,9%"
same,sensitive,Shigella spp.,100%
same,MIC,"Salmonella enterica; read-out: NCCLS MIC, 37 NAL-R strains",0.25 to 1 µg/mL
same,MIC,"Salmonella enterica; read-out: NCCLS MIC, NAL-S strains",≤ 0.06 µg/mL
same,resistant,S. pneumoniae [7],0%
same,resistant isolates,Acinetobacter,43.2%
CN(C)c1ccc(O)c2c1C[C@H]1C[C@H]3[C@H](N(C)C)C(O)=C(C(N)=O)C(=O)[C@@]3(O)C(O)=C1C2=O [minocycline],MIC,[1],> 16 µg/mL
same,MIC50,Nocardia spp.,1.5 µg/mL
same,MIC90,Nocardia spp.,3 µg/mL
same,MIC range,Nocardia spp.,0.016 to 4 µg/mL
same,resistant isolates,Acinetobacter,45.9%
CC1(C)S[C@@H]2[C@H](NC(=O)[C@H](N)c3ccc(O)cc3)C(=O)N2[C@H]1C(=O)O [amoxicillin],% of sensitive strains,"E. coli; after pretreatment, Abs. 1",100.0%
same,% of sensitive strains,"E. coli; without pretreatment, Abs. 5",60.0%
same,susceptible,S. pneumoniae [8]; year 1: 2002,93.8%
same,susceptible,S. pneumoniae [8]; year 2: 2003,96.6%
same,% of sensitive strains,P. aeruginosa; after pretreatment,0.0%
same,% of sensitive strains,P. aeruginosa; without pretreatment,0.0%
same,resistant (R),S. pneumoniae [9]; 137 isolates,0.7%
same,MIC,"S. pneumoniae [9]; Streptococcus pneumoniae, read-out: MIC of the one resistant isolate",3 µg/mL
same,Susceptibility,S. pneumoniae [10],99.3%
same,% of sensitive strains,"[11]; after pretreatment, Abs. 0",0.0%
same,% of sensitive strains,"[11]; without pretreatment, Abs. 1",0.0%
same,% of sensitive strains,"Enterococcus sp; after pretreatment, Abs. 0",0.0%
same,% of sensitive strains,"Enterococcus sp; without pretreatment, Abs. 1",100.0%
same,% of sensitive strains,"[12]; after pretreatment, Abs. 48",54.2%
same,% of sensitive strains,"[12]; without pretreatment, Abs. 95",69.5%
same,% of sensitive strains,"S. aureus; after pretreatment, Abs. 4",0.0%
same,% of sensitive strains,"S. aureus; without pretreatment, Abs. 11",9.1%
same,% of sensitive strains,"Kl. pneumoniae; after pretreatment, Abs. 5",0.0%
same,% of sensitive strains,"Kl. pneumoniae; without pretreatment, Abs. 4",0.0%
same,% of sensitive strains,"Other Haemophilus sp.; after pretreatment, Abs. 11",90.9%
same,% of sensitive strains,"Other Haemophilus sp.; without pretreatment, Abs. 21",90.5%
same,"sensitivity, total strains",[13]; higher severity group (Fine scores >70),"55,8%"
same,"sensitivity, total strains",[13]; lower severity group (Fine scores <70),64.8%
same,% of sensitive strains,S. pyogenes; after pretreatment,75.0%
same,% of sensitive strains,S. pyogenes; without pretreatment,100.0%
same,% of sensitive strains,"Other Enterobacteriacae; after pretreatment, Abs. 5",20.0%
same,% of sensitive strains,"Other Enterobacteriacae; without pretreatment, Abs. 2",50.0%
same,MIC50,Nocardia spp.,12 µg/mL
same,MIC90,Nocardia spp.,32 µg/mL
same,% of sensitive strains,"Staph. coaq (−); after pretreatment, Abs. 2",50.0%
same,% of sensitive strains,"Staph. coaq (−); without pretreatment, Abs. 4",50.0%
same,% of sensitive strains,"H. influenzae; after pretreatment, Abs. 10",80.0%
same,% of sensitive strains,"H. influenzae; without pretreatment, Abs. 26",88.5%
same,% of sensitive strains,"S. -pneumoniae; after antibiotic pretreatment, Abs. 3",66.7%
same,% of sensitive strains,"S. -pneumoniae; without antibiotic pretreatment, Abs. 13",92.3%
C[C@@H]1[C@H](O)[C@@H](C)/C=C/C=C/CC/C=C/C=C/C=C/C=C/C(O[C@H]2O[C@H](C)[C@@H](O)[C@H](N)[C@@H]2O)CC2O[C@](O)(CC(O)C(O)CCC(O)CC(O)CC(O)CC(=O)O[C@H]1C)CC(O)C2C(=O)O (some centres unmarked) [nystatin],intermediate susceptibility,C. albicans,2%
same,resistance,C. albicans,2%
same,resistant,C. parapsilosis,10%
imipenem/cilastatin [IMI/CIS],"clinical cure rate at TOC, ME group","[14]; TGC 100 mg then 50 mg q12h iv, IMI/CIS 500/500 mg q6h, 5–14 days",82.4%
same,nausea,[14]; adverse events,24.8%
same,vomiting,[14]; adverse events,19.4%
same,"clinical cure rate at TOC, m-mITT cohort",[14]; same regimens,78.2%
COc1c(N2CCNC(C)C2)c(F)cc2c(=O)c(C(=O)O)cn(C3CC3)c12 (centres unmarked) [gatifloxacin],MIC,[1],> 128 µg/mL
same,MIC50,MSSA,< 0.0625 µg/mL
same,MIC90,MSSA,< 0.125 µg/mL
same,MIC range,MSSA,0.0625 to 4 µg/mL
same,MIC50,[4],0.25 µg/mL
same,MIC90,[4],0.25 µg/mL
same,resistant isolates,Acinetobacter,83.8%
same,MIC50,MRSA,< 4 µg/mL
same,MIC90,MRSA,< 4 µg/mL
same,MIC range,MRSA,4 µg/mL
same,MIC90,S. pneumoniae (SPN),0.5 µg/mL
CC1(C)S[C@@H]2[C@H](NC(=O)[C@H](C(=O)O)c3ccsc3)C(=O)N2[C@H]1C(=O)O [ticarcillin],Susceptible isolates,[6],74-100%
same,resistant isolates,Acinetobacter,86.5%
C[C@H]1COc2c(C3(N)CC3)c(F)cc3c(=O)c(C(=O)O)cn1c23 [pazufloxacin],MIC,[1],> 128 µg/mL
CC(=O)NC[C@H]1CN(c2ccc(N3CCOCC3)c(F)c2)C(=O)O1 [linezolid],sensitivity of all GISS strains,[3],all GISS strains demonstrated sensitivity
same,MIC50,MSSA,< 2 µg/mL
same,MIC90,MSSA,< 2 µg/mL
same,MIC range,MSSA,2 µg/mL
same,MIC50,[15]; Staphylococcus aureus,2 µg/mL
same,MIC90,[15]; Staphylococcus aureus,2 µg/mL
same,MIC range,[15]; n = 41,0.5 to 2 µg/mL
same,MIC50,[4],1 µg/mL
same,MIC90,[4],1 µg/mL
same,susceptibility of all isolates,[4]; NCCLS,All isolates were susceptible
same,MIC range,[16],1 to 32 µg/mL
same,MIC50,Nocardia spp.,1 µg/mL
same,MIC90,Nocardia spp.,2 µg/mL
same,MIC range,Nocardia spp.,0.047 to 3 µg/mL
same,MIC50,MRSA,< 2 µg/mL
same,MIC90,MRSA,< 2 µg/mL
same,MIC range,MRSA,2 µg/mL
same,Susceptibility,E. faecium; ICU,98%
same,Susceptibility,E. faecium; non-ICU,99%
same,Susceptibility,"E. faecalis; ICU, SRGA breakpoints, tigecycline tentative ≤2 μg/ml",98%
same,Susceptibility,E. faecalis; non-ICU,99%
same,clinical response,"[17]; 10 mg/kg bid iv, combined therapy, 38/50 courses",76%
same,courses discontinued due to exacerbation of cytopenia,[17]; 1 course,2%
same,eradication of Gram(+) organisms in mixed fungal and bacterial infection,[17]; 4/50 courses,8%
same,complete resolution after ineffective vancomycin therapy,[17]; 8/16,50%
same,"eradication, documented Gram(+) infection",[17]; 13/13,100%
same,complete resolution of the symptoms,[17]; 34/50 courses,68%
same,"% S, range between species",[5],99.1 – 100.0%
same,sensitivity of all isolated strains,enterococci,All the isolated strains were sensitive
Clc1ccc(COC(Cn2ccnc2)c2ccc(Cl)cc2Cl)cc1 (centres unmarked) [econazole],intermediate susceptibility,C. albicans,2%
same,resistant and intermediate susceptibility,C. parapsilosis,63%
